pIC50: −log10 of the molar value.
Target: T1, Tyrosine-protein phosphatase non-receptor type 1 (Homo sapiens, UniProt P18031)
T1 sequence (P18031 whole entry): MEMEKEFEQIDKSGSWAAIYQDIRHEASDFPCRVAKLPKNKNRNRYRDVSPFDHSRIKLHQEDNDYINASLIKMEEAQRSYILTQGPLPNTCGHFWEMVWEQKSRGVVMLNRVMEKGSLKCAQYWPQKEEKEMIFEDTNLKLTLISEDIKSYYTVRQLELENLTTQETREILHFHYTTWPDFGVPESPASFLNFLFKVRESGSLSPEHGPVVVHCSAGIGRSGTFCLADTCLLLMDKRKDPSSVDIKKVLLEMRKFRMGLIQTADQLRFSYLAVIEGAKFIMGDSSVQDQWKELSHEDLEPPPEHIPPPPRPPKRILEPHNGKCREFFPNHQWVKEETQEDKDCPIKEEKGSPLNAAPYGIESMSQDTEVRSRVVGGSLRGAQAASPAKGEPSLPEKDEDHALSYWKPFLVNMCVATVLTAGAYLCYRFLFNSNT
Test: Non-competitive reversible inhibition of human PTP1B
Settings: for pIC50: read-out: IC50; for IC50: read-out: pIC50 (converted)

SMILES	pIC50	IC50
N#CC1=C(N)N(c2ccccc2)N=C2CSCC=C21	5.96	1.1 µM
CC1(C)C=C2C(=NN(c3ccccc3C(F)(F)F)C(N)=C2C#N)CO1	5.41	3.9 µM
CC1(C)C=C2C(=NN(c3cccc(C(F)(F)F)c3)C(N)=C2C#N)CO1	5.55	2.8 µM
CCOc1ccc(N2N=C3COC(C)(C)C=C3C(C#N)=C2N)cc1	5.49	3.2 µM
CCOc1ccccc1N1N=C2COC(C)(C)C=C2C(C#N)=C1N	5.47	3.4 µM
N#CC1=C(N)N(c2ccccc2)N=C2COCC=C21	6.46	0.35 µM
COC(=O)c1cccc(N2N=C3COC(C)(C)C=C3C(C#N)=C2N)c1	5.68	2.1 µM
N#CC1=C(N)N(c2ccccc2)N=C2CCCC=C21	4.98	10.4 µM
CC(C)c1ccccc1N1N=C2CSCC=C2C(C#N)=C1N	5.70	2 µM
N#CC1=C(N)N(c2ccc(F)cc2)N=C2CSCC=C21	5.70	2 µM
N#CC1=C(N)N(c2ccccc2F)N=C2CSCC=C21	5.36	4.4 µM
COc1ccc(N2N=C3CSCC=C3C(C#N)=C2N)cc1	5.89	1.3 µM
CC1(C)C=C2C(=NN(c3ccccc3N3CCOCC3)C(N)=C2C#N)CO1	5.54	2.9 µM
CC(C)c1cccc(N2N=C3COC(C)(C)C=C3C(C#N)=C2N)c1	5.09	8.2 µM
CCCCc1ccc(N2N=C3COC(C)(C)C=C3C(C#N)=C2N)cc1	5.15	7 µM
CCCCc1ccccc1N1N=C2COC(C)(C)C=C2C(C#N)=C1N	5.82	1.5 µM
CC1(C)C=C2C(=NN(c3ccc(CCO)cc3)C(N)=C2C#N)CO1	5.54	2.9 µM
COc1ccc(N2N=C3COC(C)(C)C=C3C(C#N)=C2N)cc1	5.66	2.2 µM
CC1(C)C=C2C(=NN(c3ccc(Oc4ccccc4)cc3)C(N)=C2C#N)CO1	4.64	22.7 µM
CC1(C)C=C2C(=NN(c3ccccc3Oc3ccccc3)C(N)=C2C#N)CO1	4.80	15.8 µM
CC(=O)Nc1ccc(N2N=C3COC(C)(C)C=C3C(C#N)=C2N)cc1	5.21	6.1 µM
CC(=O)Nc1cccc(N2N=C3COC(C)(C)C=C3C(C#N)=C2N)c1	5.64	2.3 µM
CC1(C)C=C2C(=NN(c3ccccc3[N+](=O)[O-])C(N)=C2C#N)CO1	4.76	17.5 µM
CCc1ccc(N2N=C3COC(C)(C)C=C3C(C#N)=C2N)cc1	5.55	2.8 µM
CC1(C)C=C2C(=NN(c3ccc(CO)cc3)C(N)=C2C#N)CO1	5.77	1.7 µM
CC(C)c1ccc(N2N=C3CSCC=C3C(C#N)=C2N)cc1	5.25	5.6 µM

Now from value to compound:

pIC50	IC50	SMILES
5.24	5.7 µM	CC1(C)C=C2C(=NN(c3ccccc3)C(N)=C2C#N)CO1
5.62	2.4 µM	CC1(C)C=C2C(=NN(c3cccc(CO)c3)C(N)=C2C#N)CO1
5.31	4.9 µM	CC1(C)C=C2C(=NN(c3ccc(F)cc3)C(N)=C2C#N)CO1
5.62	2.4 µM	CC1(C)C=C2C(=NN(c3ccccc3F)C(N)=C2C#N)CO1
5.35	4.5 µM	CC1(C)C=C2C(=NN(c3cccc(F)c3)C(N)=C2C#N)CO1
5.21	6.19 µM	COc1ccccc1N1N=C2COC(C)(C)C=C2C(C#N)=C1N
5.44	3.6 µM	COc1cccc(N2N=C3COC(C)(C)C=C3C(C#N)=C2N)c1
5.41	3.9 µM	CC1(C)C=C2C(=NN(c3cccc(Oc4ccccc4)c3)C(N)=C2C#N)CO1
5.80	1.6 µM	CCc1ccccc1N1N=C2COC(C)(C)C=C2C(C#N)=C1N
5.09	8.2 µM	CCc1cccc(N2N=C3COC(C)(C)C=C3C(C#N)=C2N)c1
4.95	11.1 µM	CC1(C)C=C2C(=NN(c3ccccc3CO)C(N)=C2C#N)CO1

From ChEMBL document CHEMBL2424609, “In silico accounting of novel pyridazine analogues as h-PTP 1B inhibitors: pharmacophore modelling, atom-based 3D QSAR and docking studies” (Med Chem Res, 2013)
